Measured values taken from patent US8680111B2 (Pfizer Inc., priority 2012, dated 2014).

Tests used:
[1] = molecular target: T1, L1196M EML4-ALK (NIH-3T3 EML4-ALK v1 L1196M cells) (Homo sapiens, UniProt Q9UM73, L1196M); test: Cellular phospho-ALK (Tyr1604) ELISA assay for L1196M EML4-ALK; format: cell-based; settings: NIH-3T3 EML4-ALK v1 L1196M cells, 1 hour, phospho-ALK (Tyr1604); read-out: ELISA assay for L1196M EML4-ALK (IC50)
T1 construct: expressed in transfected cells; the other entry of the earlier key: EML4 (Q9HC35, Echinoderm microtubule-associated protein-like 4)
Procedure: (§1) Cellular Phospho-ALK (Tyr1604) ELISA Assay for EML4-ALK:
(§2) The cells were maintained at 37° C. in a 5% CO2 incubator in DMEM (Invitrogen, Carlsbad, Calif.) medium supplemented with 1% L-glutamine, 1% penicillin and streptomycin, 1 ug/ml puromycin and 10% new born calf serum (NCS) in T-75 flasks.
(§3) Cells were washed with PBS and re-suspended in DMEM medium supplemented with 0.5% NCS and 1% pen/strep and seeded into 96-well plates at density of 20,000 cells/well/100 μl and incubated in the incubator at 37° C. and 5% CO2. After 20 hours of incubation, 100 μl of assay media (DMEM) in presence of designated PF-compounds concentrations or controls (DMSO) were added into plates and incubated for 1 hour in the incubator. Media was then removed and lysis buffer, containing phosphatase inhibitors and phenylmethanesulfonyl fluoride (PMSF), was added to wells and shaken at 4° C. for 30 minutes to generate protein lysates.
(§4) A phospho-ALK (Tyr1604) rabbit antibody was coated onto the 96-well microplates. 50 μl of cell lysates were added to the antibody coated plate and incubated at room temperature for 2 hours. Following extensive washing with 0.1% Tween 20 in PBS to remove unbound materials, ALK mouse mAb was added to detect captured phospho-ALK (Tyr1604) and phospho-ALK fusion proteins. Anti-mouse IgG, HRP-linked antibody was then used to recognize the bound detection antibody. Finally, the chemiluminescent reagent was added and incubated for 10 minutes for signal development. The assay plates were read in the Envision plate reader in the luminescent mode. IC50 values were calculated by a concentration-response curve fitting using a four-parameter analytic method.

[2] = molecular target: T2, WT EML4-ALK (NIH-3T3 EML4-ALK wt v1 cells) (Homo sapiens, UniProt Q9UM73); test: Cellular phospho-ALK (Tyr1604) ELISA assay for WT EML4-ALK; format: cell-based; settings: 1 hour, read-out: ELISA assay for WT EML4-ALK (IC50)
T2 construct: expressed in transfected cells; the other entry of the earlier key: EML4 (Q9HC35, Echinoderm microtubule-associated protein-like 4)
Procedure: as §1, §2, §3, §4

[3] = molecular target: T3, human recombinant wild-type ALK kinase domain (amino acids 1093-1411) (Homo sapiens, UniProt Q9UM73); test: Wild-type ALK enzyme assay (microfluidic mobility shift); format: biochemical; settings: ATP 60 μM, competitive inhibition fit, read-out: WT ALK enzyme assay (Ki)
T3 construct: ALK kinase domain (amino acids 1093-1411); made in house
Procedure: The reactions were incubated for 1 h at room temperature, stopped by the addition of 0.1 M EDTA, pH 8, and the extent of reactions (˜15-20% conversion with no inhibitor) was determined after electrophoretic separation of the fluorescently labeled peptide substrate and phosphorylated product on an LabChip EZ Reader II (Caliper Life Sciences, Hopkinton, Mass.).

[4] = molecular target: T4, human recombinant L1196M ALK kinase domain (amino acids 1093-1411) (Homo sapiens, UniProt Q9UM73, L1196M); test: L1196M mutant ALK enzyme assay (microfluidic mobility shift); format: biochemical; settings: ATP 60 μM, 0.5 nM enzyme, competitive inhibition fit; read-out: L1196M ALK enzyme assay (Ki)
T4 construct: ALK kinase domain (amino acids 1093-1411); made in house

Row | SMILES | IC50 [1] [nM] | IC50 [2] [nM] | Ki [3] [nM] | Ki [4] [nM]
1 | CC1Oc2cc(F)ccc2C(=O)N(C)Cc2nn(C)c(C#N)c2-c2cnc(N)c1c2 (single isomer, unassigned) [Example 76, 7-amino-12-fluoro-2,9,16-trimethyl-15-oxo-2,15,16,17-tetrahydro-9H-8,4-(metheno)pyrazolo[4,3-h][1,5,11]benzoxadiazacyclotetradecine-3-carbonitrile] | 109 | 95.6 | 3.1 | 1.9
2 | CC1Oc2cc(F)ccc2C(=O)N(C)Cc2nn(C)c(C#N)c2-c2cnc(N)c1c2 (single isomer, unassigned) [Example 77, 7-amino-12-fluoro-2,9,16-trimethyl-15-oxo-2,15,16,17-tetrahydro-9H-8,4-(metheno)pyrazolo[4,3-h][1,5,11]benzoxadiazacyclotetradecine-3-carbonitrile] | 3320 | 3390 | 75 | 45.8
3 | CC1c2nn(C)c(C#N)c2-c2cnc(N)c(n2)OCc2cc(F)ccc2C(=O)N1C (single isomer, unassigned) [Example 79, 7-amino-12-fluoro-2,16,17-trimethyl-15-oxo-10,15,16,17-tetrahydro-2H-8,4-(azeno)pyrazolo[4,3-h][2,5,11]benzoxadiazacyclotetradecine-3-carbonitrile] | 180 | 42.8 | 1.18 | 2.9
4 | CN1Cc2nn(C)c(C#N)c2-c2cnc(N)c(c2)OC(CF)c2cc(F)ccc2C1=O (single isomer, unassigned) [Example 85, 7-amino-12-fluoro-10-(fluoromethyl)-2,16-dimethyl-15-oxo-10,15,16,17-tetrahydro-2H-8,4-(metheno)pyrazolo[4,3-h][2,5,11]benzoxadiazacyclotetradecine-3-carbonitrile] | 6.72 | 0.55 | 0.07 | 0.13
5 | COc1nn(C)c2c1-c1cnc(N)c(c1)OC(CF)c1cc(F)ccc1C(=O)N(C)C2 (single isomer, unassigned) [Example 86, 7-amino-12-fluoro-10-(fluoromethyl)-3-methoxy-1,16-dimethyl-16,17-dihydro-1H-8,4-(metheno)pyrazolo[4,3-h][2,5,11]benzoxadiazacyclotetradecin-15(10H)-one] | 2.57 | 0.45 | < 0.2 | 0.1
6 | CC1Oc2nc(cnc2N)-c2c(nn(C)c2C#N)COCc2ccc(F)cc21 (single isomer, unassigned) [Example 105, 7-amino-12-fluoro-2,10-dimethyl-2,10,15,17-tetrahydro-8,4-(azeno)pyrazolo[4,3-h][2,11,5]benzodioxazacyclotetradecine-3-carbonitrile] | 642 | 115 | 3 | 16.7
7 | CC1Oc2nc(cnc2N)-c2c(nn(C)c2C#N)Cn2ccnc2-c2ccc(F)cc21 (single isomer, unassigned) [Example 108, 8-amino-3-fluoro-5,13-dimethyl-13,15-dihydro-5H-7,11-(azeno)imidazo[1,2-k]pyrazolo[4,3-h][2,5,11]benzoxadiazacyclotetradecine-12-carbonitrile] | 0.5 | 0.068 | < 0.06 | < 0.05
8 | CC1Oc2nc(cnc2N)-c2c(nn(C)c2C#N)Cn2ccnc2-c2ccc(F)cc21 (single isomer, unassigned) [Example 109, 8-amino-3-fluoro-5,13-dimethyl-13,15-dihydro-5H-7,11-(azeno)imidazo[1,2-k]pyrazolo[4,3-h][2,5,11]benzoxadiazacyclotetradecine-12-carbonitrile] | 55.6 | 11 | 8.1 | 4.7
9 | COc1nn(C)c2c1-c1cnc(N)c(n1)OCc1cc(F)ccc1C(=O)N(C)C2C (single isomer, unassigned) [Example 122, 7-amino-12-fluoro-3-methoxy-1,16,17-trimethyl-16,17-dihydro-1H-8,4-(azeno)pyrazolo[4,3-h][2,5,11]benzoxadiazacyclotetradecin-15(10H)-one] | 52.3 | 9.27 | 0.27 | 0.7
10 | COc1nn(C)c2c1-c1cnc(N)c(n1)OCc1cc(F)ccc1C(=O)N(C)C2C (single isomer, unassigned) [Example 123, 7-amino-12-fluoro-3-methoxy-1,16,17-trimethyl-16,17-dihydro-1H-8,4-(azeno)pyrazolo[4,3-h][2,5,11]benzoxadiazacyclotetradecin-15(10H)-one] | > 10000 | 4790 | 205 | 333
11 | CN1Cc2c(c(C#N)nn2C)-c2cnc(N)c(n2)OC(CF)c2ccccc2C1=O (single isomer, unassigned) [Example 127] | 65 | 2.5 | 0.099 | 0.52
12 | COc1snc2c1-c1cnc(N)c(c1)O[C@H](C)c1cc(F)ccc1C(=O)N(C)C2 [Example 3, (10R)-7-amino-12-fluoro-3-methoxy-10,16-dimethyl-16,17-dihydro-8,4-(metheno)isothiazolo[4,3-h][2,5,11]benzoxadiazacyclotetradecin-15(10H)-one] | 22.2 | 0.99 | < 0.2 | 0.2
13 | CN1Cc2nn(C)c(C#N)c2-c2cnc(N)c(c2)OCc2cc(F)ccc2C1=O [Example 4, 7-amino-12-fluoro-2,16-dimethyl-15-oxo-10,15,16,17-tetrahydro-2H-8,4-(metheno)pyrazolo[4,3-h][2,5,11]benzoxadiazacyclotetradecine-3-carbonitrile] | 184 | 28.1 | < 0.2 | 1.2
14 | CN1Cc2ccc(S(C)(=O)=O)cc2-c2cnc(N)c(c2)OCc2cc(F)ccc2C1=O [Example 5, 8-amino-3-fluoro-17-methyl-13-(methylsulfonyl)-16,17-dihydro-7,11-(metheno)dibenzo[g,l][1,4,10]oxadiazacyclotetradecin-18(5H)-one] | 156 | 12.1 | 0.34 | 3.4
15 | CC1Oc2cc(cnc2N)-c2ccccc2CN(C)C(=O)c2ccc(F)cc21 (stereo not shown) [Example 8, 8-amino-3-fluoro-5,17-dimethyl-16,17-dihydro-7,11-(metheno)dibenzo[g,l]-[1,4,10]-oxadiazacyclotetradecin-18(5H)-one] | 680 | 12.1 | 0.9 | 10
16 | CCn1ncc2c1-c1cnc(N)c(c1)O[C@H](C)c1cc(F)ccc1C(=O)N(C)C2 [Example 27, (10R)-7-amino-3-ethyl-12-fluoro-10,16-dimethyl-16,17-dihydro-3H-8,4-(metheno)pyrazolo[3,4-h][2,5,11]benzoxadiazacyclotetradecin-15(10H)-one] | 157 | 9.15 | 0.38 | 5.3
17 | COc1nccc2c1-c1cnc(N)c(c1)O[C@H](C)c1cc(F)ccc1C(=O)N(C)C2 [Example 34, (11R)-8-amino-13-fluoro-4-methoxy-11,17-dimethyl-17,18-dihydro-9,5-(metheno)pyrido[3,4-h][2,5,11]benzoxadiazacyclotetradecin-16(11H)-one] | 890 | 36.1 | 0.56 | 15
18 | C[C@H]1Oc2cc(cnc2N)-c2cc(S(C)(=O)=O)ccc2CN(C)Cc2ccc(F)cc21 [Example 35, (5R)-3-fluoro-5,17-dimethyl-13-(methylsulfonyl)-5,16,17,18-tetrahydro-7,11-(metheno)dibenzo[g,l][1,4,10]oxadiazacyclotetradecin-8-amine] | 14.3 | 0.98 | < 0.261 | 1.1
19 | C[C@H]1Oc2cc(cnc2N)-c2c(nn(C)c2C#N)CN(C)Cc2ccc(F)cc21 [Example 36, (10R)-7-amino-12-fluoro-2,10,16-trimethyl-10,15,16,17-tetrahydro-2H-4,8-(metheno)pyrazolo[4,3-h][2,5,11]benzoxadiazacyclotetradecine-3-carbonitrile] | 2.64 | 0.18 | < 0.2 | 0.56
20 | Cc1n[nH]c2c1-c1cnc(N)c(c1)OCc1cc(F)ccc1OCCC2 [Example 38, 12-fluoro-3-methyl-1,16,17,18-tetrahydro-10H-8,4-(metheno)pyrazolo[3,4-e][1,12,9]benzodioxazacyclopentadecin-7-amine] | 201 | 12 | 0.61 | 5.7
21 | CCCn1nnc2c1-c1cnc(N)c(c1)O[C@H](C)c1cc(F)ccc1C(=O)N(C)C2 [Example 41, (10R)-7-amino-12-fluoro-10,16-dimethyl-3-propyl-16,17-dihydro-3H-8,4-(metheno)[1,2,3]triazolo[4,5-h][2,5,11]benzoxadiazacyclotetradecin-15(10H)-one] | 680 | 33.1 | 1.5 | 19
22 | CN1Cc2nn(C)c(C#N)c2-c2cnc(N)c(n2)OCc2cc(F)ccc2C1=O [Example 46, 7-amino-12-fluoro-2,16-dimethyl-15-oxo-10,15,16,17-tetrahydro-2H-8,4-(azeno)pyrazolo[4,3-h][2,5,11]benzoxadiazacyclotetradecine-3-carbonitrile] | 44.7 | 10.4 | 0.15 | 1.1
